Measured values published in publication PMC10746543, “Design principles for cyclin K molecular glue degraders” (Nature Chemical Biology, 2023).
Values joined by “and” are separate entries in the source; they are usually repeats but may differ in a detail not shown here. Equal entries are not always repeated. Where two headings read alike, the source gives them in different places.

Columns and labels:
CDK12–cyclin K and DDB1 = molecular target: T1, CDK12–cyclin K and DDB1 (Homo sapiens, UniProt Q16531+Q9NYV4, K965R); assay: TR-FRET ternary complex formation assay (compound titration); assay type: binding
T1 construct: His6–CDK12 (a.a. 713–1,052); full-length or beta-propeller B domain deletion (ΔBPB: a.a. 396–705 deleted) constructs of His6–DDB1ΔBPB, StrepII–Avi–DDB1, or His6–Spy–DDB1; made in house; host or cells: Trichoplusia ni High Five insect cells (baculovirus)
T1 sequence (Q9NYV4 713-1052 K965R): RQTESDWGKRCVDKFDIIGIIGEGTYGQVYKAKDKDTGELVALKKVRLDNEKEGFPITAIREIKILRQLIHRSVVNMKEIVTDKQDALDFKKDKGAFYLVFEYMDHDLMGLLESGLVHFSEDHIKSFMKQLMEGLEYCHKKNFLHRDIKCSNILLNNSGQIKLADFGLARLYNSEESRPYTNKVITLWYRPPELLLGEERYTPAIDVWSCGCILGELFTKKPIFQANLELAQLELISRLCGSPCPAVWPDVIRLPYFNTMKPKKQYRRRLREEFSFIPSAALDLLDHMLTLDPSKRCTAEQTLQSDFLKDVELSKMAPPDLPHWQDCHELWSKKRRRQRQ
T1 sequence (O75909 1-267 partner): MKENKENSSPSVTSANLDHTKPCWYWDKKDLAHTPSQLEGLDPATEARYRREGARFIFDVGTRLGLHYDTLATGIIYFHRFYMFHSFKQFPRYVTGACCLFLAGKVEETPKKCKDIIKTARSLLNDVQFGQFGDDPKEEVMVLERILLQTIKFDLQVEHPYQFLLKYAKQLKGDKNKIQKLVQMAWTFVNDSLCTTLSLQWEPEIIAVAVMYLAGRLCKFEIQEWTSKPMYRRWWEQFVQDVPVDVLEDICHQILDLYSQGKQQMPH
T1 sequence (Q16531 whole entry): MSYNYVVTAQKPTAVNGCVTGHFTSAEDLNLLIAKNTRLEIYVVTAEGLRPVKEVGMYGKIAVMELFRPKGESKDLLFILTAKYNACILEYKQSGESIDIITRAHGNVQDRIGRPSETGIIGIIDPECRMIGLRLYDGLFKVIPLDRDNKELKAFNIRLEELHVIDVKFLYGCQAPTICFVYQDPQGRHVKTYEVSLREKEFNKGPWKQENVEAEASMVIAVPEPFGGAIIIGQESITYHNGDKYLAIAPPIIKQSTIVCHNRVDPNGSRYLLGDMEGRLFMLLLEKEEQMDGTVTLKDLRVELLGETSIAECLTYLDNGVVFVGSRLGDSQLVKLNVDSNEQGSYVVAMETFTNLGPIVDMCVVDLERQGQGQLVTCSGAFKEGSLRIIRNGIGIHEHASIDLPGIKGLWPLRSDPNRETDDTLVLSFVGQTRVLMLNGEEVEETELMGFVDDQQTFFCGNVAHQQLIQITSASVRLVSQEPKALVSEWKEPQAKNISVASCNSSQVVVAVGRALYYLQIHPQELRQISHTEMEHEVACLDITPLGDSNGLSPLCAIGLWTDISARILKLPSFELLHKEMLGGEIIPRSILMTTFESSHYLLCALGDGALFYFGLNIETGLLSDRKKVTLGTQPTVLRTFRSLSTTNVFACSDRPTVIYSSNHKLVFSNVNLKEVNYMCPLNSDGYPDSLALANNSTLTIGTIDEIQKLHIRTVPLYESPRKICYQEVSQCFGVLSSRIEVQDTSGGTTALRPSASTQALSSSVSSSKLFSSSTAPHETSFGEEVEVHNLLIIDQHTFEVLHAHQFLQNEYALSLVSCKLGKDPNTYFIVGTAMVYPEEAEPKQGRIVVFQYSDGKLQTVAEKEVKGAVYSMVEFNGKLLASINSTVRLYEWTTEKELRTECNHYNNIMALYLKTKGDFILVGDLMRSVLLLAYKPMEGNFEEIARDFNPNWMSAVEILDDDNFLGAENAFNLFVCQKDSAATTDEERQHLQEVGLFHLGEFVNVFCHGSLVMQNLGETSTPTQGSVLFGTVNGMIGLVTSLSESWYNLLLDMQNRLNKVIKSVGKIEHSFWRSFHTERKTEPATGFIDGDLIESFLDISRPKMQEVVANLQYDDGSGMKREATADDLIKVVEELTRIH
How it was run: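 Delayed (70 μs) time-resolved read; FRET computed as 520 nm over 490 nm emission.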

[1] = system: cyclin K–eGFP degradation reporter; assay: Cyclin K reporter stability analysis (dual-color cyclin K–eGFP reporter); assay type: cell-based, human; conditions: source data sheet correlations; read-out: DC50
How it was run: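 Cells (HEK293T–Cas9, reporter-expressing) at 1 × 10^6 ml^−1; 5 h compound or DMSO; flow cytometry; gMFI eGFP ÷ mCherry on round mCherry-positive events; normalized to 3 DMSO controls.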

HEK293T cells = assay: Drug sensitivity assay (CellTiter-Glo viability) with or without MLN4924 pretreatment; assay type: cell-based, human; conditions: for EC50: Homo sapiens, HEK-293T
How it was run: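 Viability of HEK293T–Cas9 cells was compared after 3-day drug treatment with or without 100 nM MLN4924 pretreatment (2 h, versus DMSO). Values are CellTiter-Glo signals relative to DMSO controls.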

CDK12–cyclin K = CDK12–cyclin K (Homo sapiens, UniProt Q9NYV4); assay: Lanthascreen kinase binding assay, CDK12; conditions: for Lanthascreen raw signal, sheet CDK12: series r37, duplicates
Sequence of CDK12–cyclin K (Q9NYV4 713-1052): as the sequence (Q9NYV4 713-1052 K965R) above, with R253K counted along it
Sequence of CDK12–cyclin K (O75909 1-267 partner limits assumed): as the sequence (O75909 1-267 partner) above
Experimental: (§1) Lanthascreen experiments were performed using commercially available reagents (Thermo Fisher) and according to the manufacturer’s instructions.

CDK9–cyclin T = molecular target: T2, CDK9–cyclin T (Homo sapiens, UniProt P50750); assay: Lanthascreen kinase binding assay, CDK9; conditions: for Lanthascreen TR-FRET signal (raw ratio), sheet CDK9: third titration set (r25), duplicates
T2 construct: purchased Thermo Fisher
T2 sequence (P50750 whole entry): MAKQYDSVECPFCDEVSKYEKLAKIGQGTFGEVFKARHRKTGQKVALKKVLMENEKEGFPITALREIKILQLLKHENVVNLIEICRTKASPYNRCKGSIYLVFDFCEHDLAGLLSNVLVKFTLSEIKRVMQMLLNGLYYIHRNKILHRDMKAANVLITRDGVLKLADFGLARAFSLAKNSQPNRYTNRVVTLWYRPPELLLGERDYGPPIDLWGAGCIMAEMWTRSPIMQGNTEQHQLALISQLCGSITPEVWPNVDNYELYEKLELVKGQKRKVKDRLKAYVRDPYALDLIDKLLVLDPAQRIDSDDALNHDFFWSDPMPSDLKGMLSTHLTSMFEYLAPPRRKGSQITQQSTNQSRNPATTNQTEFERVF
T2 sequence (O60563 whole entry partner): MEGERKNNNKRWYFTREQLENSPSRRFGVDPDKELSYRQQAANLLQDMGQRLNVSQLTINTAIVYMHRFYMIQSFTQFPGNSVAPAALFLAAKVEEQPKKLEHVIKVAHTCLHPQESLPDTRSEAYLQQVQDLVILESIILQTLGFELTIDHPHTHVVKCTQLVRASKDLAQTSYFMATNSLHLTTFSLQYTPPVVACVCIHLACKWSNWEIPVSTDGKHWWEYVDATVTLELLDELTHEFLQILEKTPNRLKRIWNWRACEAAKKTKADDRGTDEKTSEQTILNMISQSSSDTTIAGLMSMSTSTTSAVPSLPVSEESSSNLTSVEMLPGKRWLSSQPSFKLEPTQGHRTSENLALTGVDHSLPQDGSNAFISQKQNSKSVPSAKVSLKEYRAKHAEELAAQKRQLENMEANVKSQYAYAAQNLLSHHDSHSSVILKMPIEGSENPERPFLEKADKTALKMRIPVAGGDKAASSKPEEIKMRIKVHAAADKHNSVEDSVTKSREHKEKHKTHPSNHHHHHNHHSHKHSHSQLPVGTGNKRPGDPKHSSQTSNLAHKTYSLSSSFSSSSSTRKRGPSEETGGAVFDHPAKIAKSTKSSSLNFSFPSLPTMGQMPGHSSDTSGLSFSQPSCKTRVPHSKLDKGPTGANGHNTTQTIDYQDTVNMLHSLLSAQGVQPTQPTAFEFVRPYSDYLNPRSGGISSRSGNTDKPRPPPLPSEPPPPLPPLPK
Experimental: as §1

CDK2–cyclin A = molecular target: T3, CDK2–cyclin A (Homo sapiens, UniProt P24941); assay: Lanthascreen kinase binding assay, CDK2; conditions: for Lanthascreen signal, sheet CDK2: raw replicates, experiment r36-r46
T3 construct: purchased Thermo Fisher
Experimental: as §1

TR-FRET signal at compound concentration 4.68 nM (CDK12–cyclin K and DDB1; compound concentration 4.68 nM, raw replicate titration data): 0.1432 and 0.1661
TR-FRET signal at compound concentration 21.6 nM (CDK12–cyclin K and DDB1; compound concentration 21.6 nM, raw replicate titration data): 0.2041 and 0.2174
TR-FRET signal at compound concentration 36 nM (CDK12–cyclin K and DDB1; compound concentration 36 nM, raw replicate titration data): 0.3026 and 0.3362
TR-FRET signal at compound concentration 79.2001 nM (CDK12–cyclin K and DDB1; compound concentration 79.2001 nM, raw replicate titration data): 0.4985 and 0.5183
TR-FRET signal at compound concentration 158.4 nM (CDK12–cyclin K and DDB1; compound concentration 158.4 nM, raw replicate titration data): 0.7975 and 0.8115
TR-FRET signal at compound concentration 309.6 nM (CDK12–cyclin K and DDB1; compound concentration 309.6 nM, raw replicate titration data): 1.104 and 1.124
TR-FRET signal at compound concentration 626.401 nM (CDK12–cyclin K and DDB1; compound concentration 626.401 nM, raw replicate titration data): 1.537 and 1.587
TR-FRET signal at compound concentration 1252.8 nM (CDK12–cyclin K and DDB1; compound concentration 1252.8 nM, raw replicate titration data): 1.789 and 1.917
TR-FRET signal at compound concentration 2448 nM (CDK12–cyclin K and DDB1; compound concentration 2448 nM, raw replicate titration data): 1.994 and 2.074
TR-FRET signal at compound concentration 9936.01 nM (CDK12–cyclin K and DDB1; compound concentration 9936.01 nM, raw replicate titration data): 2.1 and 2.149
TR-FRET signal at compound concentration 20016 nM (CDK12–cyclin K and DDB1; compound concentration 20016 nM, raw replicate titration data): 2.044 and 2.1355
DDB1–CDK12 complex formation, result in words (CDK12–cyclin K and DDB1; in vitro TR-FRET): poorer glues
EC50 (CDK12–cyclin K and DDB1; sheet MOESM7, read-out: log TR-FRET EC50 (converted)): 299 nM
EC50 (CDK12–cyclin K and DDB1; source data sheet correlations, read-out: TR-FRET EC50): 299 nM
DC50 [1]: 3120 nM
IC50 (CDK12–cyclin K; Supplementary Table 2, read-out: Lanthascreen IC50 [nM] CDK12): 2860 nM
Lanthascreen raw signal, sheet CDK12 (CDK12–cyclin K; compound 0.038147 nM): 0.01384 and 0.01435
Lanthascreen raw signal, sheet CDK12 (CDK12–cyclin K; compound 0.152588 nM): 0.01397 and 0.0142
Lanthascreen raw signal, sheet CDK12 (CDK12–cyclin K; compound 0.610352 nM): 0.015 and 0.01469
Lanthascreen raw signal, sheet CDK12 (CDK12–cyclin K; compound 9.76563 nM): 0.01433 and 0.01471
Lanthascreen raw signal, sheet CDK12 (CDK12–cyclin K; compound 39.0625 nM): 0.01481 and 0.01445
Lanthascreen raw signal, sheet CDK12 (CDK12–cyclin K; compound 156.25 nM): 0.01408 and 0.01362
Lanthascreen raw signal, sheet CDK12 (CDK12–cyclin K; compound 625 nM): 0.01314 and 0.0125
Lanthascreen raw signal, sheet CDK12 (CDK12–cyclin K; compound 2500 nM): 0.01076 and 0.01056
Lanthascreen raw signal, sheet CDK12 (CDK12–cyclin K; compound 10000 nM): 0.008221 and 0.008078
IC50 (CDK9–cyclin T; Supplementary Table 2, read-out: Lanthascreen IC50 [nM] CDK9): 953 nM
Lanthascreen TR-FRET signal (raw ratio), sheet CDK9 (CDK9–cyclin T; compound 0.038147 nM): 0.01926 and 0.02033
Lanthascreen TR-FRET signal (raw ratio), sheet CDK9 (CDK9–cyclin T; compound 0.152588 nM): 0.01912 and 0.02064
Lanthascreen TR-FRET signal (raw ratio), sheet CDK9 (CDK9–cyclin T; compound 0.610352 nM): 0.01926 and 0.02032
Lanthascreen TR-FRET signal (raw ratio), sheet CDK9 (CDK9–cyclin T; compound 9.76563 nM): 0.01956 and 0.02095
Lanthascreen TR-FRET signal (raw ratio), sheet CDK9 (CDK9–cyclin T; compound 39.0625 nM): 0.01859 and 0.0203
Lanthascreen TR-FRET signal (raw ratio), sheet CDK9 (CDK9–cyclin T; compound 156.25 nM): 0.01696 and 0.01861
Lanthascreen TR-FRET signal (raw ratio), sheet CDK9 (CDK9–cyclin T; compound 625 nM): 0.01333 and 0.0154
Lanthascreen TR-FRET signal (raw ratio), sheet CDK9 (CDK9–cyclin T; compound 2500 nM): 0.009112 and 0.01043
Lanthascreen TR-FRET signal (raw ratio), sheet CDK9 (CDK9–cyclin T; compound 10000 nM): 0.007018 and 0.007122
Lanthascreen signal, sheet CDK2 (CDK2–cyclin A; Compound 0.038147 nM): 0.01393 and 0.01328
Lanthascreen signal, sheet CDK2 (CDK2–cyclin A; Compound 0.152588 nM): 0.01386 and 0.01382
Lanthascreen signal, sheet CDK2 (CDK2–cyclin A; Compound 0.610352 nM): 0.01425 and 0.01382
Lanthascreen signal, sheet CDK2 (CDK2–cyclin A; Compound 9.76563 nM): 0.01432 and 0.01375
Lanthascreen signal, sheet CDK2 (CDK2–cyclin A; Compound 39.0625 nM): 0.01417 and 0.01371
Lanthascreen signal, sheet CDK2 (CDK2–cyclin A; Compound 156.25 nM): 0.01414 and 0.0141
Lanthascreen signal, sheet CDK2 (CDK2–cyclin A; Compound 625 nM): 0.01356 and 0.01358
Lanthascreen signal, sheet CDK2 (CDK2–cyclin A; Compound 2500 nM): 0.0127 and 0.009084
Lanthascreen signal, sheet CDK2 (CDK2–cyclin A; Compound 10000 nM): 0.01132 and 0.011
IC50 (CDK2–cyclin A; Lanthascreen, average, Extended Data Fig. 8, read-out: CDK2 IC50): > 10000 nM
IC50 (CDK2–cyclin A; Supplementary Table 2, read-out: Lanthascreen IC50 [nM] CDK2): > 10000 nM
SMILES: Cn1cc(-n2cnc3c(NCc4ccc(-c5ccccn5)cc4)nc(N4CCOCC4)nc32)cn1 [DS21]
EC50 (HEK293T cells; Supplementary Fig. 5, HEK293T, CellTiter Glo, 72h, pre-treatment with 100 nM MLN4924, read-out: Viability EC50, with MLN4924): 4860 nM
EC50 (HEK293T cells; Supplementary Table 2, HEK293T viability, 72 h, compound alone, read-out: Cellular assays EC50): 4940 nM
Toxicity rescue (HEK293T cells; Supplementary Table 2, MLN4924-mediated cytotoxicity rescue, 10 µM used where n.d.): 102%
